According to patent US6777412B2 (priority 1990, dated 2004):
Read-outs that look alike come from different tables or passages of the source. Marks after values point to notes of the source that are not given here.

How the values were obtained:
Assay type in all cases: in vivo
[1] = test system: Puccinia recondita; assay: Foliar fungal disease test on plants: Puccinia recondita (Pr)
Procedure, shortened: (§1)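 Potted plants treated by foliar spray to maximum retention (100 ppm a.i. unless stated) plus root drench (~40 ppm a.i. in dry soil), with 0.05% Tween 20 on cereals, one or two days before spore-suspension inoculation.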

[2] = test system: Erysiphe graminis tritici; assay: Foliar fungal disease test on plants: Erysiphe graminis tritici (Egt)
Description: (§2) The compounds were tested against a variety of foliar fungal diseases of plants. The technique employed was as follows.
(§3) The plants were grown in John Innes Potting Compost (No.1 or 2) in 4 cm diameter minipots. The test compounds were formulated either by bead milling with aqueous Dispersol T or as a solution in acetone or acetone/ethanol which was diluted to the required concentration immediately before use. For the foliage diseases, the formulations (100 ppm active ingredient except where otherwise indicated) were sprayed onto the foliage and applied to the roots of the plants in the soil. The sprays were applied to maximum retention and the root drenches to a final concentration equivalent to approximately 40 ppm a.i. in dry soil. Tween 20, to give a final concentration of 0.05%, was added when the sprays were applied to cereals.
(§4) For most of the tests the compound was applied to the soil (roots) and to the foliage (by spraying) one or two days before the plant was inoculated with the disease. An exception was the test on Erysiphe graminis in which the plants were inoculated 24 hours before treatment. Foliar pathogens were applied by spray as spore suspensions onto the leaves of test plants. After inoculation, the plants were put into an appropriate environment to allow infection to proceed and then incubated until the disease was ready for assessment. The period between inoculation and assessment varied from four to fourteen days according to the disease and environment.
(§5) The disease control vas recorded by the following grading:
(§6) 3=trace-5% of disease on untreated plants
(§7) 2=6-25% of disease on untreated plants
(§8) 1=26-59% of disease on untreated plants
(§9) 0=60-100% of disease on untreated plants
Egt Erysiphe graminis tritici

[3] = test system: Septoria nodorum; assay: Foliar fungal disease test on plants: Septoria nodorum (Sn)
Description: as §2, §3, §4, §5, §6, §7, §8, §9

[4] = test system: Pyricularia oryzae
[5] = test system: Thanatephorus cucumeris; assay: Foliar fungal disease test on plants: Thanatephorus cucumeris (Tc)
Description: as §2, §3, §4, §5, §6, §7, §8, §9
Tc Thanatephorus cucumeris

[6] = test system: Venturia inaequalis; assay: Foliar fungal disease test on plants: Venturia inaequalis (Vi)
Procedure, shortened: as §1

[7] = test system: Plasmopara viticola; assay: Foliar fungal disease test on plants: Plasmopara viticola (Pv)
Procedure, shortened: as §1

[8] = test system: Phytophthora infestans lycopersici
[9] = test system: Erysiphe graminis hordei; assay: Foliar fungal disease test on plants: Erysiphe graminis hordei (Egh)
[10] = 100 ppm active ingredient foliar spray plus root drench (approx. 40 ppm a.i. in dry soil), one or two days before inoculation
[11] = 100 ppm active ingredient foliar spray plus root drench (approx. 40 ppm a.i. in dry soil), plants inoculated 24 hours before treatment

Compound | disease control grading, Pr (Puccinia recondita) [1, 10] | disease control grading, Egt (Erysiphe graminis tritici) [2, 11] | disease control grading, Sn (Septoria nodorum) [3, 10] | disease control grading, Po (Pyricularia oryzae) [4, 10] | disease control grading, Tc (Thanatephorus cucumeris) [5, 10] | disease control grading, Vi (Venturia inaegualis) [6, 10] | disease control grading, Pv (Plasmopara viticola) [7, 10] | disease control grading, Pil (Phytophthora infestans lycopersici) [8, 10] | disease control grading, Pr (Puccinia recondita) ([1]; 10 ppm foliar application only) | disease control grading, Egh (Erysiphe graminis hordei) ([9]; 10 ppm foliar application only) | disease control grading, Sn (Septoria nodorum) ([3]; 10 ppm foliar application only) | disease control grading, Po (Pyricularia oryzae) ([4]; 10 ppm foliar application only) | disease control grading, Tc (Thanatephorus cucumeris) ([5]; 10 ppm foliar application only) | disease control grading, Vi (Venturia inaegualis) ([6]; 10 ppm foliar application only) | disease control grading, Pv (Plasmopara viticola) ([7]; 10 ppm foliar application only) | disease control grading, Pil (Phytophthora infestans lycopersici) ([8]; 10 ppm foliar application only) | disease control grading, Egh (Erysiphe graminis hordei) [9, 11] | disease control grading, Egt (Erysiphe graminis tritici) ([2]; 10 ppm foliar application only)
CO/C=C(/C(=O)OC)c1ccccc1Oc1cc(OCc2ccco2)ncn1 [320 of Table I] | 4 (4=no disease) | 4 (4=no disease) | 4 (4=no disease) | 3 (3=trace-5% of disease on untreated plants) | 4 (4=no disease) | 4 (4=no disease) | 4 (4=no disease) | 4 (4=no disease) |  |  |  |  |  |  |  |  |  | 
CO/C=C(/C(=O)OC)c1ccccc1Oc1cc(OCc2c(Cl)cccc2C(F)(F)F)ncn1 [383 of Table I] |  |  |  |  |  |  |  |  | 4^a (4=no disease) | 0^a (0=60-100% of disease on untreated plants) | 4^a (4=no disease) | 0^a (0=60-100% of disease on untreated plants) | 4^a (4=no disease) | 3^a (3=trace-5% of disease on untreated plants) | 4^a (4=no disease) | 0^a (0=60-100% of disease on untreated plants) |  | 
CO/C=C(/C(=O)OC)c1ccccc1Oc1cc(OCc2c(F)cccc2Cl)ncn1 [386 of Table I] | 4 (4=no disease) |  | 4 (4=no disease) | 4 (4=no disease) | 4 (4=no disease) | 4 (4=no disease) | 4 (4=no disease) | 4 (4=no disease) |  |  |  |  |  |  |  |  | 4 (4=no disease) | 
CO/C=C(/C(=O)OC)c1ccccc1Oc1cc(OCC#Cc2ccccc2)ncn1 [387 of Table I] | 4 (4=no disease) |  | 4 (4=no disease) | 4 (4=no disease) | 4 (4=no disease) | 4 (4=no disease) | 4 (4=no disease) | 4 (4=no disease) |  |  |  |  |  |  |  |  | 4 (4=no disease) | 
CO/C=C(/C(=O)OC)c1ccccc1Oc1cc(OCc2c(F)c(F)c(F)c(F)c2F)ncn1 [388 of Table I] | 4 (4=no disease) |  | 4 (4=no disease) | 4 (4=no disease) | 4 (4=no disease) | 4 (4=no disease) | 4 (4=no disease) | 4 (4=no disease) |  |  |  |  |  |  |  |  | 4 (4=no disease) | 
CO/C=C(/C(=O)OC)c1ccccc1Oc1cc(OCc2ccccc2C#N)ncn1 [389 of Table I] |  |  |  |  |  |  |  |  | 4^a (4=no disease) | 4^a (4=no disease) | 4^a (4=no disease) | 4^a (4=no disease) | 4^a (4=no disease) | 4^a (4=no disease) | 4^a (4=no disease) | 0^a (0=60-100% of disease on untreated plants) |  | 
CO/C=C(/C(=O)OC)c1ccccc1Oc1cc(OCCOc2ccc(C#N)cc2)ncn1 [390 of Table I] | 4 (4=no disease) |  | 3 (3=trace-5% of disease on untreated plants) | 4 (4=no disease) | 1 (1=26-59% of disease on untreated plants) | 4 (4=no disease) | 4 (4=no disease) | 0 (0=60-100% of disease on untreated plants) |  |  |  |  |  |  |  |  | 3 (3=trace-5% of disease on untreated plants) | 
CO/C=C(/C(=O)OC)c1ccccc1Oc1cc(OCCSc2ccccc2)ncn1 [391 of Table I] | 4 (4=no disease) |  | 4 (4=no disease) | 3 (3=trace-5% of disease on untreated plants) | 4 (4=no disease) | 4 (4=no disease) | 4 (4=no disease) | 4 (4=no disease) |  |  |  |  |  |  |  |  | 4 (4=no disease) | 
CO/C=C(/C(=O)OC)c1ccccc1Oc1cc(N(C=O)c2ccccc2O)ncn1 [392 of Table I] |  |  |  |  |  |  |  |  | 0^a (0=60-100% of disease on untreated plants) | 0^a (0=60-100% of disease on untreated plants) | 1^a (1=26-59% of disease on untreated plants) | 0^a (0=60-100% of disease on untreated plants) | 0^a (0=60-100% of disease on untreated plants) | 0^a (0=60-100% of disease on untreated plants) | 0^a (0=60-100% of disease on untreated plants) | 0^a (0=60-100% of disease on untreated plants) |  | 
CO/C=C(/C(=O)OC)c1ccccc1Oc1cc(OCCSc2ccccc2C#N)ncn1 [393 of Table I] | 4 (4=no disease) |  | 4 (4=no disease) | 4 (4=no disease) | 4 (4=no disease) | 0 (0=60-100% of disease on untreated plants) | 4 (4=no disease) | 4 (4=no disease) |  |  |  |  |  |  |  |  | 4 (4=no disease) | 
CO/C=C(/C(=O)OC)c1ccccc1Oc1cc(OCc2cccs2)ncn1 [394 of Table I] | 4 (4=no disease) | 4 (4=no disease) | 4 (4=no disease) | 3 (3=trace-5% of disease on untreated plants) | 4 (4=no disease) | 4 (4=no disease) | 4 (4=no disease) | 4 (4=no disease) |  |  |  |  |  |  |  |  |  | 
CO/C=C(/C(=O)OC)c1ccccc1Oc1cc(O/N=C(/N)c2cccc(C(F)(F)F)c2)ncn1 [406 of Table I] | 0 (0=60-100% of disease on untreated plants) | 1 (1=26-59% of disease on untreated plants) | 0 (0=60-100% of disease on untreated plants) | 0 (0=60-100% of disease on untreated plants) | 0 (0=60-100% of disease on untreated plants) | 1 (1=26-59% of disease on untreated plants) | 4 (4=no disease) | 0 (0=60-100% of disease on untreated plants) |  |  |  |  |  |  |  |  |  | 
CO/C=C(/C(=O)OC)c1ccccc1Oc1cc(O/N=C(\C)c2ccc[nH]2)ncn1 [407 of Table I] |  |  |  |  |  |  |  |  | 0^a (0=60-100% of disease on untreated plants) |  | 0^a (0=60-100% of disease on untreated plants) | 1^a (1=26-59% of disease on untreated plants) | 0^a (0=60-100% of disease on untreated plants) | 3^a (3=trace-5% of disease on untreated plants) | 4^a (4=no disease) | 0^a (0=60-100% of disease on untreated plants) |  | 1^a (1=26-59% of disease on untreated plants)
